Patent US20230139171A1 (SITA Information Networking Computing UK Limited, priority 2019, published 2023)
pIC50: −log10 of the molar value.

Tests used:
Type in all cases: cell-based
human TLR7 = target: T1, human TLR7 (Homo sapiens, UniProt Q9NYK1); experiment: TLR7 inhibition reporter assay (HEK-Blue cells, SEAP reporter, gardiquimod stimulation); conditions: HEK-Blue cells overexpressing human TLR7, SEAP reporter, gardiquimod 7.5 μM; read-out: TLR7 IC50
T1 construct: host or cells: HEK-Blue cells
T1 sequence (Q9NYK1 27-1049): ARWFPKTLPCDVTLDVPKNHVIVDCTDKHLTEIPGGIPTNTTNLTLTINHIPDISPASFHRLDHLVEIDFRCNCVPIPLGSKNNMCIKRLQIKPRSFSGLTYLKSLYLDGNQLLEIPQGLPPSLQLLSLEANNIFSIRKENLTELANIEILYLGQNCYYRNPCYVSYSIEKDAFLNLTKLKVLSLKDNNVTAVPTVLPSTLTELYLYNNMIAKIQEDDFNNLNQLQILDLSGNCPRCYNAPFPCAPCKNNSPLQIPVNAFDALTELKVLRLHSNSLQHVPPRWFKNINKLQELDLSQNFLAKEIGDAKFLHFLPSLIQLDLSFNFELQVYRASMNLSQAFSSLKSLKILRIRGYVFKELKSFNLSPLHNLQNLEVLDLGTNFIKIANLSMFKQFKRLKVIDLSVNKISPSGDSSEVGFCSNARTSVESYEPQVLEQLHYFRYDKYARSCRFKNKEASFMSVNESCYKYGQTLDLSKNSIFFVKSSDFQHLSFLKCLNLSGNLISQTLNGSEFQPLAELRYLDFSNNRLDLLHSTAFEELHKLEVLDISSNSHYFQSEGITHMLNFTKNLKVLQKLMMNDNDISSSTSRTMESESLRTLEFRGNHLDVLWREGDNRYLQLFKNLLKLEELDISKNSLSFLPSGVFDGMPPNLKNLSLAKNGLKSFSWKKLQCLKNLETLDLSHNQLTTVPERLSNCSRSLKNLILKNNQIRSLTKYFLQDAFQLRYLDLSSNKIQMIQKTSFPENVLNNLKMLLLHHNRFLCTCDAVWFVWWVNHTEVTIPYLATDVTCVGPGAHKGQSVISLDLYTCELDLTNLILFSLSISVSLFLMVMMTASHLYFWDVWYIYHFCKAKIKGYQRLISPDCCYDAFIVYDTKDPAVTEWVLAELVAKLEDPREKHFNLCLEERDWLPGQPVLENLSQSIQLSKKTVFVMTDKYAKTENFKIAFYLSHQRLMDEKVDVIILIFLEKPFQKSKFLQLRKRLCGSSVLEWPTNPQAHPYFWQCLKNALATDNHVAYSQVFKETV
Method in brief: (§1)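 Agonists used: gardiquimod 7.5 μM (TLR7), R848 15.9 μM (TLR8), ODN2006 5 nM (TLR9), added after 30 min room-temperature compound pre-treatment (0.05 nM–50 μM) of receptor-overexpressing HEK-Blue cells. SEAP reporter (NF-κB/AP-1 driven) read after 22 h at 37 °C; inhibition scaled between agonist+DMSO and reference-inhibitor wells.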

human TLR8 = target: T2, human TLR8 (Homo sapiens, UniProt Q9NR97); experiment: TLR8 inhibition reporter assay (HEK-Blue cells, SEAP reporter, R848 stimulation); conditions: HEK-Blue cells overexpressing human TLR8, SEAP reporter, R848 15.9 μM; read-out: TLR8 IC50
T2 construct: host or cells: HEK-Blue cells
T2 sequence (Q9NR97 27-1041): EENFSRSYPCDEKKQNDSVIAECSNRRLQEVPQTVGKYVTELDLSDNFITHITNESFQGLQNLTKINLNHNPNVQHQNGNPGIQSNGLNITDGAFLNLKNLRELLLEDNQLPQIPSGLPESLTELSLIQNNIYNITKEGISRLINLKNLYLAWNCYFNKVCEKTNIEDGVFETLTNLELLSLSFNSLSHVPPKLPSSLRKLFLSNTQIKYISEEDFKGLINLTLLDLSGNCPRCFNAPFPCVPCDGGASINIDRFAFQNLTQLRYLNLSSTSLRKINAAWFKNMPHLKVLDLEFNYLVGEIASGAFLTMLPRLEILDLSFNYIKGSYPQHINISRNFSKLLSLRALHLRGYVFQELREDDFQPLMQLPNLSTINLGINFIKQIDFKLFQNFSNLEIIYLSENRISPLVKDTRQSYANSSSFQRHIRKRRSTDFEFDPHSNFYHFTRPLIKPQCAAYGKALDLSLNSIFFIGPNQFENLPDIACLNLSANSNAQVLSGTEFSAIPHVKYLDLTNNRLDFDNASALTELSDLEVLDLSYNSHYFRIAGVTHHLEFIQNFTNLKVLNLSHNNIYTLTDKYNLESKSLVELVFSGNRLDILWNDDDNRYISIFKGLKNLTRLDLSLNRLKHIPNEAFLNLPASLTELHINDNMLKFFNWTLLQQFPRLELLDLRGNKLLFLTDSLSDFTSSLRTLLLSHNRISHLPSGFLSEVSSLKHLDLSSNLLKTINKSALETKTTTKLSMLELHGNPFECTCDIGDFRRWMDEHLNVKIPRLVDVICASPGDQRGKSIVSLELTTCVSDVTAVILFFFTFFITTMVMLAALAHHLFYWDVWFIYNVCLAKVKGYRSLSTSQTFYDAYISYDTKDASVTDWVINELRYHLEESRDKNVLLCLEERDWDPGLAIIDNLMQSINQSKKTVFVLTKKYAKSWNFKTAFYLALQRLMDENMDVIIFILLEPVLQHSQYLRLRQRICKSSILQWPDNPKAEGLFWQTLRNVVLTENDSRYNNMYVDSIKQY
Method in brief: as §1

human TLR9 = target: T3, human TLR9 (Homo sapiens, UniProt Q9NR96); experiment: TLR9 inhibition reporter assay (HEK-Blue cells, SEAP reporter, ODN2006 stimulation); conditions: HEK-Blue cells overexpressing human TLR9, SEAP reporter, ODN2006 5 nM
T3 construct: host or cells: HEK-Blue cells
T3 sequence (Q9NR96 26-1032): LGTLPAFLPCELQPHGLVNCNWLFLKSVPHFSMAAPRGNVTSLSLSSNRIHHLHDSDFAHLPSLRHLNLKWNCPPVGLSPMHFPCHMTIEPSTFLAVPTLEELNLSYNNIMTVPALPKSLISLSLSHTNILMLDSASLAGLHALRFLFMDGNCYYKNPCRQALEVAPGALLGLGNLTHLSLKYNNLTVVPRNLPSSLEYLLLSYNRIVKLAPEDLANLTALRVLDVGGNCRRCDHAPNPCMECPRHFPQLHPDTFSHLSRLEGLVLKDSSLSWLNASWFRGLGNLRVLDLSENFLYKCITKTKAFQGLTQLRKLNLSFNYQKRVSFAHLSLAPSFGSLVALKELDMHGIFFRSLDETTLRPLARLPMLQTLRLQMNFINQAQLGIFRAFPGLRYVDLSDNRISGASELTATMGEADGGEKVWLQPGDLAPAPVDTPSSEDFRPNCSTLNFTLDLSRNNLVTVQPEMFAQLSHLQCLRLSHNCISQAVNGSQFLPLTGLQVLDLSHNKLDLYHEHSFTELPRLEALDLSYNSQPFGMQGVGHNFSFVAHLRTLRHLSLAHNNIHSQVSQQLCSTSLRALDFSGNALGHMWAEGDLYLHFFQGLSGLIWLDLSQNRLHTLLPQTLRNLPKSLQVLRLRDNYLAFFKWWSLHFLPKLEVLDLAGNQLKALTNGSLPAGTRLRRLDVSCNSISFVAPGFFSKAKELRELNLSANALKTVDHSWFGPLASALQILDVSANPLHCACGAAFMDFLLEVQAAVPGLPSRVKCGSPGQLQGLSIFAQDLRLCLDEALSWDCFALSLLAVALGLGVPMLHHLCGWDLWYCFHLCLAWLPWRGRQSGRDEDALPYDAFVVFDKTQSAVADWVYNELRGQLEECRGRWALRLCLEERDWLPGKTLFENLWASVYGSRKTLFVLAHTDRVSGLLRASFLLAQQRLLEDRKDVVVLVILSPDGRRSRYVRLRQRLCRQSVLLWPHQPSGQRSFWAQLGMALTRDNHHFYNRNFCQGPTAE
Method in brief: as §1

Row | SMILES | pIC50 (human TLR7) | pIC50 (human TLR8) | pIC50 (human TLR9)
1 | Cc1c(-c2[nH]c3sc(C4CCC(N(C)CC(C)C)CC4)nc3c2C(C)C)cn2ncnc2c1C (single isomer, unassigned) [Example 229, 4-(5-(7,8-dimethyl-[1,2,4]triazolo[1,5-a]pyridin-6-yl)-6-isopropyl-4H-pyrrolo[3,2-d]thiazol-2-yl)-N-isobutyl-N-methylcyclohexan-1-amine] | 8.15 | 8.43 | 5.30
2 | Cc1c(-c2[nH]c3sc(C4CCC(NC5CCS(=O)(=O)C5)CC4)nc3c2C(C)C)cn2ncnc2c1C (single isomer, unassigned) [Example 231, 3-((4-(5-(7,8-dimethyl-[1,2,4]triazolo[1,5-a]pyridin-6-yl)-6-isopropyl-4H-pyrrolo[3,2-d]thiazol-2-yl)cyclohexyl)amino)tetrahydrothiophene 1,1-dioxide] | 8.20 | 8.92 | 4.31
3 | Cc1c(-c2[nH]c3sc(C4CCC(NC5CCS(=O)(=O)C5)CC4)nc3c2C(C)C)cn2ncnc2c1C (single isomer, unassigned) [Example 232, 3-((4-(5-(7,8-dimethyl-[1,2,4]triazolo[1,5-a]pyridin-6-yl)-6-isopropyl-4H-pyrrolo[3,2-d]thiazol-2-yl)cyclohexyl)amino)tetrahydrothiophene 1,1-dioxide] | 8.38 | 8.10 | < 4.30
4 | Cc1c(-c2[nH]c3sc(C4CCC(N5CC6(C5)CS(=O)(=O)C6)CC4)nc3c2C(C)C)cn2ncnc2c1C (single isomer, unassigned) [Example 233, 6-(4-(5-(7,8-dimethyl-[1,2,4]triazolo[1,5-a]pyridin-6-yl)-6-isopropyl-4H-pyrrolo[3,2-d]thiazol-2-yl)cyclohexyl)-2-thia-6-azaspiro[3.3]heptane 2,2-dioxide] | 8.64 | 9.23 | < 4.30
5 | Cc1c(-c2[nH]c3sc(C4CCC(N5CC6(C5)CS(=O)(=O)C6)CC4)nc3c2C(C)C)cn2ncnc2c1C (single isomer, unassigned) [Example 234, 6-(4-(5-(7,8-dimethyl-[1,2,4]triazolo[1,5-a]pyridin-6-yl)-6-isopropyl-4H-pyrrolo[3,2-d]thiazol-2-yl)cyclohexyl)-2-thia-6-azaspiro[3.3]heptane 2,2-dioxide] | 7.82 | 7.22 | < 4.30
6 | Cc1c(-c2[nH]c3sc(C4CCC(N5CCC6(CC5)COC6)CC4)nc3c2C(C)C)cn2ncnc2c1C (single isomer, unassigned) [Example 237, 7-(4-(5-(7,8-dimethyl-[1,2,4]triazolo[1,5-a]pyridin-6-yl)-6-isopropyl-4H-pyrrolo[3,2-d]thiazol-2-yl)cyclohexyl)-2-oxa-7-azaspiro[3.5]nonane] | 8.31 | 9.54 | 5.26
7 | Cc1c(-c2[nH]c3sc(C4CCC(N5CCC6(CC5)COC6)CC4)nc3c2C(C)C)cn2ncnc2c1C (single isomer, unassigned) [Example 238, 7-(4-(5-(7,8-dimethyl-[1,2,4]triazolo[1,5-a]pyridin-6-yl)-6-isopropyl-4H-pyrrolo[3,2-d]thiazol-2-yl)cyclohexyl)-2-oxa-7-azaspiro[3.5]nonane] | 8.27 | 8.22 | 5.27

Now those with a higher pIC50 (human TLR7), led by results:

Row | pIC50 (human TLR7) | pIC50 (human TLR8) | pIC50 (human TLR9) | SMILES
8 | 8.66 | 8.84 | 5.05 | Cc1c(-c2[nH]c3sc(C4CCC(N(C)CC(C)C)CC4)nc3c2C(C)C)cn2ncnc2c1C (single isomer, unassigned) [Example 228, 4-(5-(7,8-dimethyl-[1,2,4]triazolo[1,5-a]pyridin-6-yl)-6-isopropyl-4H-pyrrolo[3,2-d]thiazol-2-yl)-N-isobutyl-N-methylcyclohexan-1-amine]
9 | 8.98 | 9.00 | 4.78 | Cc1c(-c2[nH]c3sc(C4CCC(N5CC(O)(C(F)(F)F)C5)CC4)nc3c2C(C)C)cn2ncnc2c1C (single isomer, unassigned) [Example 235, 1-(4-(5-(7,8-dimethyl-[1,2,4]triazolo[1,5-a]pyridin-6-yl)-6-isopropyl-4H-pyrrolo[3,2-d]thiazol-2-yl)cyclohexyl)-3-(trifluoromethyl)azetidin-3-ol]
10 | 8.87 | 7.73 | 4.59 | Cc1c(-c2[nH]c3sc(C4CCC(N5CC(O)(C(F)(F)F)C5)CC4)nc3c2C(C)C)cn2ncnc2c1C (single isomer, unassigned) [Example 236, 1-(4-(5-(7,8-dimethyl-[1,2,4]triazolo[1,5-a]pyridin-6-yl)-6-isopropyl-4H-pyrrolo[3,2-d]thiazol-2-yl)cyclohexyl)-3-(trifluoromethyl)azetidin-3-ol]
11 | 8.71 | 9.57 | 5.00 | Cc1c(-c2[nH]c3sc(C4CCC(N5CC6(CCOCC6)C5)CC4)nc3c2C(C)C)cn2ncnc2c1C (single isomer, unassigned) [Example 239, 2-(4-(5-(7,8-dimethyl-[1,2,4]triazolo[1,5-a]pyridin-6-yl)-6-isopropyl-4H-pyrrolo[3,2-d]thiazol-2-yl)cyclohexyl)-7-oxa-2-azaspiro[3.5]nonane]
